Literature values as cited in US20050182136A1, “N-acetylcysteine compositions and methods for the treatment and prevention of endothelial dysfunction” (priority 2004, published 2005).

Tests used:
[1] = animal experiments, daily NAC dose of 150 mg/kg, over no treatment
[2] = patients with end-stage renal failure, 600 mg twice a day
[3] = oral NAC, intravenous contrast agents
[4] = relative to NAC

Row | SMILES | cysteine levels [1] | glutathione levels [1] | various adverse cardiovascular events [2] | increase of serum creatinine after the administration of the contrast agent [3] | bioactive at doses less than NAC [4]
1 | CC(=O)N[C@@H](CS)C(=O)O [NAC, N-acetylcysteine] | substantially increase | substantially increase | significantly reduced | significant reduction | –
2 | CC(=O)N[C@@H](CSSC[C@H](NC(C)=O)C(=O)O)C(=O)O [oxidized form of NAC, di-N-acetylcysteine] | – | – | – | – | 10-100 fold
